Experimental data: EP2952182A1, “Compounds and methods for increasing the immune response to papillomavirus” (Universitätsklinikum Heidelberg, priority 2014, dated 2015)

Experiments:
HPV16 L1 protein = assay: Detection of HPV L1 capsid protein by immunoblotting (Western blot) in treated Caski cells; type: cell-based; conditions: Caski cells treated for 28 days, band at approximately 55 kDa, anti HPV16 L1 polyclonal rabbit antibodies, Fig. 4
Method: 5-aza-2'-deoxycytidine was added daily to cultures of Caski cells at concentrations […]. Caski cells were cultured with medium changed every 24 hours. Treatments were stopped at day 28 and the cells were grown in the absence of drugs for […]. The same culture conditions were used for untreated and DMSO treated Caski cells. Samples were collected on days 7, 14, 21, 28 and 38 for genomic DNA and total RNA purifications.
Protein extracts were also obtained from Caski cells on days 7, 14, 21, 28 and 38 of treatment. Cells were lysed in RIPA buffer containing Protease Inhibitor Cocktail (Sigma). Whole-cell lysates were prepared in denaturing SDS sample buffer and subjected to 12% SDS-PAGE. Proteins were transferred to PVDF Membrane (Invitrogen) and the blots were blocked with 5% non-fat dry milk in TBS-T buffer. The anti HPV16 L1 polyclonal rabbit antibodies (kindly provided by Dr Martin Muller, DKFZ, Germany) were used to detect the HPV16 L1 protein. Horseradish peroxidase conjugated secondary antibodies (1:2000 dilution, Anti-rabbit IgG, HRP-linked Antibody #7074 (Cell Signaling) were detected using Western Blotting Chemiluminescence Luminol Reagent (Santa Cruz).

Caski cells = assay: CD107a mobilization (degranulation) assay of L1-stimulated T cells against pretreated Caski cells; type: cell-based
Method: PBMCs were obtained from blood of a healthy, HLA-A*0201 positive donor by density gradient centrifugation with lymphocyte separation medium (PAA, Pasching, Austria). PBMCs were resuspended in RPMI medium (Gibco, Paisley, UK), containing 5% human serum and seeded in cell culture flasks. After 4 hours of adherence at 37°C the non-adherent cells were removed. To stimulate the differentiation of monocytes into dendritic cells, the adherent fraction of cells was cultured in CellGro Medium (CellGenix, Freiburg, Germany) containing GM-CSF (1000 U/ml, Promokine, Heidelberg, Germany) and IL-4 (666,7 U/ml, Promokine, Heidelberg, Germany) for 5-7 days. Then, IL-4 and GM-CSF were added again together with a terminal differentiation-inducing cocktail containing the proinffammatory cytokines IL-6 (1000 U/ml Promokine, Heidelberg, Germany), IL-1β (10 ng/ml Promokine, Heidelberg, Germany), PGE-2 ([…], Promokine, Heidelberg, Germany) and TNF-α (10 ng/ml, Promokine, Heidelberg, Germany) were added and cells were incubated overnight. […]
To monitor the degranulation of L1-stimulated T cells (effectors) induced by Caski cells (targets), Caski cells pretreated with different concentrations of 5-Aza-2'-deoxycytidine (0.1 µM and 1.0 µM) for 12 days or untreated cells were used. […] Degranulation rate was measured as the fraction of CD107a/CD8 double staining cells relative to total CD8 positive cells (Fig. 5).

cancer cell lines = conditions: low-dose treatment; cited from earlier work

With `Nc1ncn([C@H]2C[C@H](O)[C@@H](CO)O2)c(=O)n1` [5-aza-2'-deoxycytidine] the “L1 protein expression level” value (HPV16 L1 protein) was “Significant increase” and the “fraction of T cells undergoing degranulation (CD107a/CD8 double staining cells relative to total CD8 positive cells)” value (Caski cells; Caski cells pretreated with 0.1 µM and 1.0 µM for 12 days vs untreated, effectors and targets 1:1, 5 hours, Fig. 5) was “increased”.

In the case of `Nc1ncn([C@@H]2O[C@H](CO)[C@@H](O)[C@H]2O)c(=O)n1` [5-azacytidine], the “expression of immune-related genes” value (cancer cell lines) is given as “leads to expression of immune-related genes”.

For `Nc1ncn([C@@H]2O[C@H](CO)[C@@H](O)[C@H]2O)c(=O)n1` [azacitidine], the “cytolytic activity of T-cells stimulated in vitro with L1-derived peptides towards Caski cells” value (Caski cells; treated Caski cells expressing the L1-antigen, degranulation rate, Fig. 5 legend) was “Enhanced”.
